Laboratory results taken from patent US12551463B2, “Dosing of a Bruton's tyrosine kinase inhibitor” (Loxo Oncology, Inc., priority 2019, dated 2026).
“Also recorded” adds a separate entry of the source.

Experiment: Phase 1/2 clinical study: safety, treatment-emergent adverse events
Assay type: in vivo
Protocol: This study includes monotherapy as well as combination treatment parts. The monotherapy part includes Phase 1 dose escalation and dose expansion as well as Phase 2. […] Phase 1 dose escalation will proceed prior to start of Phase 1b or Phase 2. Once a recommended Phase 2 dose (RP2D) is identified in Phase 1, enrollment can commence to the Phase 1b combination therapies and Phase 2 monotherapy cohorts.
Dose escalation will follow a 3+3 design starting with a 25 mg QD dose (followed by 50 mg QD (dose level cohort 2), 100 mg QD (dose level cohort 3), 150 mg QD (dose level cohort 4), 200 mg QD (dose level cohort 5), 250 mg QD (dose level cohort 6), and 300 mg QD (dose level cohort 7)). Cycle length will be 28 days.
Any toxicity, regardless of the NCI CTCAE v.5 grade, resulting in discontinuation, does reduction or considered a DLT unless the SRC determines the toxicity if clearly unrelated to study drug (i.e., related to the patient's underlying disease other medical condition or concomitant medications).

COc1ccc(F)cc1C(=O)NCc1ccc(-c2nn([C@@H](C)C(F)(F)F)c(N)c2C(N)=O)cc1 [BTK-I, (S)-5-amino-3-(4-((5-fluoro-2-methoxybenzamido)methyl)phenyl)-1-(1,1,1-trifluoropropane-2-yl)-1H-pyrazole-4-carboxamide]
Abdominal pain (TEAE) (25 mg QD (N = 5)): 1 (20.0) n(%) | Anaemia (TEAE) (25 mg QD (N = 5)): 0 (0.0) n(%) | Back pain (TEAE) (25 mg QD (N = 5)): 0 (0.0) n(%) | Constipation (TEAE) (25 mg QD (N = 5)): 0 (0.0^ n(%) | Contusion (TEAE) (25 mg QD (N = 5)): 0 (0.0) n(%) | Cough (TEAE) (25 mg QD (N = 5)): 3 (60.0) n(%) | Diarrhoea (TEAE) (25 mg QD (N = 5)): 3 (60.0) n(%) | Dizziness (TEAE) (25 mg QD (N = 5)): 2 (40.0) n(%) | Dyspnoea (TEAE) (25 mg QD (N = 5)): 0 (0.0) n(%) | Fatigue (TEAE) (25 mg QD (N = 5)): 3 (60.0) n(%) | Headache (TEAE) (25 mg QD (N = 5)): 2 (40.0) n(%) | Nausea (TEAE) (25 mg QD (N = 5)): 2 (40.0) n(%) | Neutropenia (TEAE) (25 mg QD (N = 5)): 0 (0.0) n(%) | Neutrophil count decreased (TEAE) (25 mg QD (N = 5)): 1 (20.0) n(%) | Oedema peripheral (TEAE) (25 mg QD (N = 5)): 1 (20.0) n(%) | Rash maculopapular (TEAE) (25 mg QD (N = 5)): 0 (0.0) n(%) | Subjects with Any TEAEs (25 mg QD (N = 5)): 5 (100.0) n(%) | Upper respiratory tract infection (TEAE) (25 mg QD (N = 5)): 1 (20.0) n(%) | dose limiting toxicities (25 mg to 300 mg QD): no dose limiting toxicities or dose reductions; also recorded: DLTS have not been observed | Abdominal pain (TEAE) (50 mg QD (N = 6)): 0 (0.0) n(%) | Anaemia (TEAE) (50 mg QD (N = 6)): 0 (0.0) n(%) | Back pain (TEAE) (50 mg QD (N = 6)): 0 (0.0) n(%) | Constipation (TEAE) (50 mg QD (N = 6)): 0 (0.0) n(%) | Contusion (TEAE) (50 mg QD (N = 6)): 2 (33.3) n(%) | Cough (TEAE) (50 mg QD (N = 6)): 2 (33.3) n(%) | Diarrhoea (TEAE) (50 mg QD (N = 6)): 1 (16.7) n(%) | Dizziness (TEAE) (50 mg QD (N = 6)): 0 (0.0) n(%) | Dyspnoea (TEAE) (50 mg QD (N = 6)): 0 (0.0) n(%) | Fatigue (TEAE) (50 mg QD (N = 6)): 3 (50.0) n(%) | Headache (TEAE) (50 mg QD (N = 6)): 1 (16.7) n(%) | Nausea (TEAE) (50 mg QD (N = 6)): 2 (33.3) n(%) | Neutropenia (TEAE) (50 mg QD (N = 6)): 1 (16.7) n(%) | Neutrophil count decreased (TEAE) (50 mg QD (N = 6)): 0 (0.0) n(%) | Oedema peripheral (TEAE) (50 mg QD (N = 6)): 1 (16.7) n(%) | Pyrexia (TEAE) (50 mg QD (N = 6)): 0 (0.0) n(%) | Rash maculopapular (TEAE) (50 mg QD (N = 6)): 0 (0.0) n(%) | Subjects with Any TEAEs (50 mg QD (N = 6)): 6 (100.0) n(%) | Upper respiratory tract infection (TEAE) (50 mg QD (N = 6)): 3 (50.0) n(%) | Abdominal pain (TEAE) (100 mg QD (N = 9)): 2 (2.2) n(%) | Anaemia (TEAE) (100 mg QD (N = 9)): 2 (22.2) n(%) | Back pain (TEAE) (100 mg QD (N = 9)): 0 (0.0) n(%) | Constipation (TEAE) (100 mg QD (N = 9)): 0 (0.0) n(%) | Contusion (TEAE) (100 mg QD (N = 9)): 0 (0.0) n(%) | Cough (TEAE) (100 mg QD (N = 9)): 0 (0.0) n(%) | Diarrhoea (TEAE) (100 mg QD (N = 9)): 3 (33.3) n(%) | Dizziness (TEAE) (100 mg QD (N = 9)): 1 (11.1) n(%) | Dyspnoea (TEAE) (100 mg QD (N = 9)): 2 (22.2) n(%) | Fatigue (TEAE) (100 mg QD (N = 9)): 2 (22.2) n(%) | Headache (TEAE) (100 mg QD (N = 9)): 1 (11.1) n(%) | Nausea (TEAE) (100 mg QD (N = 9)): 1 (11.1) n(%) | Neutropenia (TEAE) (100 mg QD (N = 9)): 0 (0.0) n(%) | Neutrophil count decreased (TEAE) (100 mg QD (N = 9)): 0 (0.0) n(%) | Oedema peripheral (TEAE) (100 mg QD (N = 9)): 0 (0.0) n(%) | Pyrexia (TEAE) (100 mg QD (N = 9)): 1 (11.1) n(%) | Rash maculopapular (TEAE) (100 mg QD (N = 9)): 1 (11.1) n(%) | Subjects with Any TEAEs (100 mg QD (N = 9)): 8 (88.9) n(%) | Upper respiratory tract infection (TEAE) (100 mg QD (N = 9)): 1 (11.1) n(%) | Abdominal pain (TEAE) (150 mg QD (N = 20)): 1 (5.0) n(%) | Anaemia (TEAE) (150 mg QD (N = 20)): 3 (15.0) n(%) | Back pain (TEAE) (150 mg QD (N = 20)): 5 (25.0) n(%) | Constipation (TEAE) (150 mg QD (N = 20)): 5 (25.0) n(%) | Contusion (TEAE) (150 mg QD (N = 20)): 3 (15.0) n(%) | Cough (TEAE) (150 mg QD (N = 20)): 3 (15.0) n(%) | Diarrhoea (TEAE) (150 mg QD (N = 20)): 5 (25.0) n(%) | Dizziness (TEAE) (150 mg QD (N = 20)): 2 (10.0) n(%) | Dyspnoea (TEAE) (150 mg QD (N = 20)): 2 (10.0) n(%) | Fatigue (TEAE) (150 mg QD (N = 20)): 3 (15.0) n(%) | Headache (TEAE) (150 mg QD (N = 20)): 4 (20.0) n(%) | Nausea (TEAE) (150 mg QD (N = 20)): 1 (5.0) n(%) | Neutropenia (TEAE) (150 mg QD (N = 20)): 4 (20.0) n(%) | Neutrophil count decreased (TEAE) (150 mg QD (N = 20)): 3 (15.0) n(%) | Oedema peripheral (TEAE) (150 mg QD (N = 20)): 3 (15.0) n(%) | Pyrexia (TEAE) (150 mg QD (N = 20)): 1 (5.0) n(%) | Rash maculopapular (TEAE) (150 mg QD (N = 20)): 2 (10.0) n(%) | Subjects with Any TEAEs (150 mg QD (N = 20)): 20 (100.0) n(%) | Upper respiratory tract infection (TEAE) (150 mg QD (N = 20)): 7 (35.0) n(%) | Abdominal pain (TEAE) (200 mg QD (N = 238)): 14 (5.9) n(%) | Anaemia (TEAE) (200 mg QD (N = 238)): 16 (6.7) n(%) | Back pain (TEAE) (200 mg QD (N = 238)): 14 (5.9) n(%) | Constipation (TEAE) (200 mg QD (N = 238)): 14 (5.9) n(%) | Contusion (TEAE) (200 mg QD (N = 238)): 28 (11.8) n(%) | Cough (TEAE) (200 mg QD (N = 238)): 15 (6.3) n(%) | Diarrhoea (TEAE) (200 mg QD (N = 238)): 33 (13.9) n(%) | Dizziness (TEAE) (200 mg QD (N = 238)): 10 (4.2) n(%) | Dyspnoea (TEAE) (200 mg QD (N = 238)): 16 (6.7) n(%) | Fatigue (TEAE) (200 mg QD (N = 238)): 39 (16.4) n(%) | Headache (TEAE) (200 mg QD (N = 238)): 14 (5.9) n(%) | Nausea (TEAE) (200 mg QD (N = 238)): 16 (6.7) n(%) | Neutropenia (TEAE) (200 mg QD (N = 238)): 15 (6.3) n(%) | Neutrophil count decreased (TEAE) (200 mg QD (N = 238)): 10 (4.2) n(%) | Oedema peripheral (TEAE) (200 mg QD (N = 238)): 14 (5.9) n(%) | Pyrexia (TEAE) (200 mg QD (N = 238)): 17 (7.1) n(%) | Rash maculopapular (TEAE) (200 mg QD (N = 238)): 12 (5.0) n(%) | Upper respiratory tract infection (TEAE) (200 mg QD (N = 238)): 3 (1.3) n(%) | Abdominal pain (TEAE) (250 mg QD (N = 25)): 0 (0.0) n(%) | Anaemia (TEAE) (250 mg QD (N = 25)): 2 (8.0) n(%) | Back pain (TEAE) (250 mg QD (N = 25)): 3 (2.0) n(%) | Constipation (TEAE) (250 mg QD (N = 25)): 3 (12.0) n(%) | Contusion (TEAE) (250 mg QD (N = 25)): 5 (20.0) n(%) | Cough (TEAE) (250 mg QD (N = 25)): 3 (12.0) n(%) | Diarrhoea (TEAE) (250 mg QD (N = 25)): 5 (20.0) n(%) | Dizziness (TEAE) (250 mg QD (N = 25)): 1 (4.0) n(%) | Dyspnoea (TEAE) (250 mg QD (N = 25)): 2 (8.0) n(%) | Fatigue (TEAE) (250 mg QD (N = 25)): 10 (40.0) n(%) | Headache (TEAE) (250 mg QD (N = 25)): 3 (12.0) n(%) | Nausea (TEAE) (250 mg QD (N = 25)): 5 (20.0) n(%) | Neutropenia (TEAE) (250 mg QD (N = 25)): 1 (4.0) n(%) | Oedema peripheral (TEAE) (250 mg QD (N = 25)): 2 (8.0) n(%) | Pyrexia (TEAE) (250 mg QD (N = 25)): 2 (8.0) n(%) | Rash maculopapular (TEAE) (250 mg QD (N = 25)): 2 (8.0) n(%) | Subjects with Any TEAEs (250 mg QD (N = 25)): 25 (100.0) n(%) | Upper respiratory tract infection (TEAE) (250 mg QD (N = 25)): 6 (24.0) n(%) | Abdominal pain (TEAE) (Overall (N = 323)): 20 (6.2) n (%) | Anaemia (TEAE) (Overall (N = 323)): 24 (7.4) n (%) | Back pain (TEAE) (Overall (N = 323)): 25 (7.7) n (%) | Constipation (TEAE) (Overall (N = 323)): 25 (7.7) n (%) | Contusion (TEAE) (Overall (N = 323)): 42 (13.0) n (%) | Cough (TEAE) (Overall (N = 323)): 29 (9.0) n (%) | Diarrhoea (TEAE) (Overall (N = 323)): 55 (17.0) n (%) | Dizziness (TEAE) (Overall (N = 323)): 18 (5.6) n (%) | Dyspnoea (TEAE) (Overall (N = 323)): 26 (8.0) n (%) | Fatigue (TEAE) (Overall (N = 323)): 65 (20.1) n (%) | Headache (TEAE) (Overall (N = 323)): 29 (9.0) n (%) | Nausea (TEAE) (Overall (N = 323)): 30 (9.3) n (%) | Neutropenia (TEAE) (Overall (N = 323)): 24 (7.4) n (%) | Neutrophil count decreased (TEAE) (Overall (N = 323)): 22 (6.8) n (%) | Oedema peripheral (TEAE) (Overall (N = 323)): 22 (6.8) n (%) | Pyrexia (TEAE) (Overall (N = 323)): 23 (7.1) n (%) | Rash maculopapular (TEAE) (Overall (N = 323)): 20 (6.2) n (%) | Subjects with Any TEAEs (Overall (N = 323)): 264 (81.7) n (%) | Upper respiratory tract infection (TEAE) (Overall (N = 323)): 23 (7.1) n (%) | rates of atrial arrhythmias and major bleeding (human, in vivo): low rates | tolerability in patients (human, in vivo): appeared to be well tolerated | contusion, treatment emergent adverse event regardless of attribution or grade (n=42 of 323 patients): 13% | diarrhea, treatment emergent adverse event regardless of attribution or grade (n=55 of 323 patients): 17% | fatigue, treatment emergent adverse event regardless of attribution or grade (n=65 of 323 patients): 20% | maximum tolerated dose (MTD) (up to 300 mg QD): lack of an MTD
